#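 A five-concentration, 48-hour dose response in 96-well plates underlies each endpoint, interpolated linearly between surrounding concentrations. GI50 marks 50% less growth. Definition used: TGI = concentration required for complete inhibition of growth.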
# Assays:
# Experiment in all cases: NCI anticancer screen, dose series, 48 h
# SNB-75 CNS = test system: SNB-75 CNS
# MDA-MB-435 = test system: MDA-MB-435
# HCT-15 colon = test system: HCT-15 colon
# SNB-19 CNS = test system: SNB-19 CNS
# BT-549 breast = test system: BT-549 breast
# NCI/ADR-RES ovarian = test system: NCI/ADR-RES ovarian
# A498 renal = test system: A498 renal
# T-47D breast = test system: T-47D breast
# HT29 colon = test system: HT29 colon
# SW-620 colon = test system: SW-620 colon
# OVCAR-5 ovarian = test system: OVCAR-5 ovarian
# RXF 393 renal = test system: RXF 393 renal
# SN12C renal = test system: SN12C renal
# COLO 205 colon = test system: COLO 205 colon
# M14 melanoma = test system: M14 melanoma
# RPMI-8226 leukemia = test system: RPMI-8226 leukemia
# K-562 leukemia = test system: K-562 leukemia
# HCT-116 colon = test system: HCT-116 colon
# HS 578T breast = test system: HS 578T breast
# SK-OV-3 ovarian = test system: SK-OV-3 ovarian
# UACC-257 melanoma = test system: UACC-257 melanoma
# MCF7 breast = test system: MCF7 breast
# LOX IMVI melanoma = test system: LOX IMVI melanoma
# IGROV1 ovarian = test system: IGROV1 ovarian
# UO-31 renal = test system: UO-31 renal
# ACHN renal = test system: ACHN renal
# HL-60(TB) leukemia = test system: HL-60(TB) leukemia
# A549 NSCLC = test system: A549 NSCLC
# EKVX NSCLC = test system: EKVX NSCLC
# 786-0 renal = test system: 786-0 renal
# MDA-MB-231 breast = test system: MDA-MB-231 breast
# CCRF-CEM leukemia = test system: CCRF-CEM leukemia
# MOLT-4 leukemia = test system: MOLT-4 leukemia
# KM12 colon = test system: KM12 colon
# SR leukemia = test system: SR leukemia
# SF-268 CNS = test system: SF-268 CNS
# HCC-2998 colon = test system: HCC-2998 colon
# U251 CNS = test system: U251 CNS
# OVCAR-8 ovarian = test system: OVCAR-8 ovarian
# SK-MEL-2 melanoma = test system: SK-MEL-2 melanoma
# OVCAR-4 ovarian = test system: OVCAR-4 ovarian
# NCI-H460 lung = test system: NCI-H460 lung
# NCI-H522 lung = test system: NCI-H522 lung
# NCI-H23 lung = test system: NCI-H23 lung
# NCI-H226 lung = test system: NCI-H226 lung
# HOP-62 NSCLC = test system: HOP-62 NSCLC
# HOP-92 NSCLC = test system: HOP-92 NSCLC
# SK-MEL-28 melanoma = test system: SK-MEL-28 melanoma
# TK-10 renal = test system: TK-10 renal
# SF-295 CNS = test system: SF-295 CNS
# DU-145 prostate = test system: DU-145 prostate
# OVCAR-3 ovarian = test system: OVCAR-3 ovarian
# SK-MEL-5 melanoma = test system: SK-MEL-5 melanoma
# PC-3 prostate = test system: PC-3 prostate
# CAKI-1 renal = test system: CAKI-1 renal
# MALME-3M melanoma = test system: MALME-3M melanoma
# UACC-62 melanoma = test system: UACC-62 melanoma
compound,measurement,setting,value
Nc1nc2c(c3ncccc13)C(c1cccc(Br)c1)Cc1ncccc1-2 (centres undefined),GI50,SNB-75 CNS,0.3 µM
same,TGI,SNB-75 CNS,13.4 µM
same,GI50,MDA-MB-435,0.256 µM
same,TGI,MDA-MB-435,0.761 µM
same,GI50,HCT-15 colon,0.504 µM
same,TGI,HCT-15 colon,15.1 µM
same,GI50,SNB-19 CNS,11.5 µM
same,TGI,SNB-19 CNS,25 µM
same,GI50,BT-549 breast,0.681 µM
same,TGI,BT-549 breast,6.16 µM
same,GI50,NCI/ADR-RES ovarian,0.408 µM
same,TGI,NCI/ADR-RES ovarian,15.1 µM
same,GI50,A498 renal,0.304 µM
same,TGI,A498 renal,1.6 µM
same,GI50,T-47D breast,0.524 µM
same,TGI,T-47D breast,38.7 µM
same,GI50,HT29 colon,0.422 µM
same,TGI,HT29 colon,11.4 µM
same,GI50,SW-620 colon,0.479 µM
same,TGI,SW-620 colon,21.8 µM
same,GI50,OVCAR-5 ovarian,7.84 µM
same,TGI,OVCAR-5 ovarian,31.1 µM
same,GI50,RXF 393 renal,0.765 µM
same,TGI,RXF 393 renal,4.06 µM
same,GI50,SN12C renal,3.51 µM
same,TGI,SN12C renal,33.8 µM
same,GI50,COLO 205 colon,0.665 µM
same,TGI,COLO 205 colon,3.81 µM
same,GI50,M14 melanoma,0.509 µM
same,TGI,M14 melanoma,12.6 µM
same,GI50,RPMI-8226 leukemia,5.43 µM
same,TGI,RPMI-8226 leukemia,48.7 µM
same,GI50,K-562 leukemia,0.539 µM
same,TGI,K-562 leukemia,> 100 µM
same,GI50,HCT-116 colon,0.442 µM
same,TGI,HCT-116 colon,11.4 µM
same,GI50,HS 578T breast,2.9 µM
same,TGI,HS 578T breast,23.5 µM
same,GI50,SK-OV-3 ovarian,0.74 µM
same,TGI,SK-OV-3 ovarian,17.4 µM
same,GI50,UACC-257 melanoma,18.2 µM
same,TGI,UACC-257 melanoma,54.7 µM
same,GI50,MCF7 breast,0.37 µM
same,TGI,MCF7 breast,18.1 µM
same,GI50,LOX IMVI melanoma,0.647 µM
same,TGI,LOX IMVI melanoma,15.9 µM
same,GI50,IGROV1 ovarian,2.64 µM
same,TGI,IGROV1 ovarian,34.3 µM
same,GI50,UO-31 renal,2.6 µM
same,TGI,UO-31 renal,24.2 µM
same,GI50,ACHN renal,1.84 µM
same,TGI,ACHN renal,34.8 µM
same,GI50,HL-60(TB) leukemia,0.291 µM
same,TGI,HL-60(TB) leukemia,7.86 µM
same,GI50,A549 NSCLC,1.88 µM
same,TGI,A549 NSCLC,39.2 µM
same,GI50,EKVX NSCLC,3.07 µM
same,TGI,EKVX NSCLC,80.8 µM
same,GI50,786-0 renal,1.36 µM
same,TGI,786-0 renal,12 µM
same,GI50,MDA-MB-231 breast,1.65 µM
same,TGI,MDA-MB-231 breast,18 µM
same,GI50,CCRF-CEM leukemia,0.726 µM
same,TGI,CCRF-CEM leukemia,38.6 µM
same,GI50,MOLT-4 leukemia,0.705 µM
same,TGI,MOLT-4 leukemia,31.8 µM
same,GI50,KM12 colon,0.433 µM
same,TGI,KM12 colon,13.1 µM
same,GI50,SR leukemia,0.377 µM
same,TGI,SR leukemia,32.7 µM
same,GI50,SF-268 CNS,0.808 µM
same,TGI,SF-268 CNS,20.1 µM
same,GI50,HCC-2998 colon,2.83 µM
same,TGI,HCC-2998 colon,13.7 µM
same,GI50,U251 CNS,0.625 µM
same,TGI,U251 CNS,12.7 µM
same,GI50,OVCAR-8 ovarian,5.24 µM
same,TGI,OVCAR-8 ovarian,58 µM
same,GI50,SK-MEL-2 melanoma,0.871 µM
same,TGI,SK-MEL-2 melanoma,29.6 µM
same,GI50,OVCAR-4 ovarian,7.13 µM
same,TGI,OVCAR-4 ovarian,41 µM
same,GI50,NCI-H460 lung,0.492 µM
same,TGI,NCI-H460 lung,11 µM
same,GI50,NCI-H522 lung,0.503 µM
same,TGI,NCI-H522 lung,11.6 µM
same,GI50,NCI-H23 lung,4.52 µM
same,TGI,NCI-H23 lung,33 µM
same,GI50,NCI-H226 lung,18.8 µM
same,TGI,NCI-H226 lung,67.4 µM
same,GI50,HOP-62 NSCLC,0.88 µM
same,TGI,HOP-62 NSCLC,21.5 µM
same,GI50,HOP-92 NSCLC,0.95 µM
same,TGI,HOP-92 NSCLC,15.5 µM
same,GI50,SK-MEL-28 melanoma,2.74 µM
same,TGI,SK-MEL-28 melanoma,22.6 µM
same,GI50,TK-10 renal,7.94 µM
same,TGI,TK-10 renal,56.2 µM
same,GI50,SF-295 CNS,0.828 µM
same,TGI,SF-295 CNS,12.4 µM
same,GI50,DU-145 prostate,1.13 µM
same,TGI,DU-145 prostate,13.7 µM
same,GI50,OVCAR-3 ovarian,0.28 µM
same,TGI,OVCAR-3 ovarian,0.858 µM
same,GI50,SK-MEL-5 melanoma,0.576 µM
same,TGI,SK-MEL-5 melanoma,14.3 µM
same,GI50,PC-3 prostate,0.791 µM
same,TGI,PC-3 prostate,18.5 µM
same,GI50,CAKI-1 renal,0.749 µM
same,TGI,CAKI-1 renal,50.4 µM
same,GI50,MALME-3M melanoma,11.5 µM
same,TGI,MALME-3M melanoma,31.4 µM
same,GI50,UACC-62 melanoma,0.436 µM
same,TGI,UACC-62 melanoma,17.4 µM
